US12077503B2, “Substituted cyclic amides and their use as herbicides” (FMC CORPORATION, priority 2015, dated 2024)

Columns and labels:
Type in all cases: in vivo
Kochia (Kochia scoparia) [1] = experiment: Test A preemergence; conditions: Bassia scoparia, pre-emergence, 240 h, 0 to 100 scale where 0 is no effect and 100 is complete control, read-out: Kochia plant response rating
Summary of the method: (§1)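 Ratings of 0 (no effect) to 100 (complete control) come from visual comparison with untreated controls roughly 10 d after treatment. Test chemicals, formulated in a non-phytotoxic solvent mixture with surfactant, were applied either as a preemergence directed soil spray on seeded soil or postemergence to one- to two-leaf plants 2 to 10 cm tall.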

[2] = tested on: barnyardgrass (Echinochloa crus-galli); experiment: Test A preemergence; conditions: Echinochloa crus-galli, pre-emergence, 240 h, Preemergence
Summary of the method: as §1

[3] = tested on: giant foxtail (Setaria faberii); experiment: Test A preemergence; conditions: Setaria faberi, pre-emergence, 240 h, Preemergence
Summary of the method: as §1

[4] = tested on: pigweed (Amaranthus retroflexus); experiment: Test A preemergence; conditions: Amaranthus retroflexus, pre-emergence, 240 h, 0 to 100 scale where 0 is no effect and 100 is complete control, read-out: Pigweed plant response rating
[5] = tested on: ragweed (common ragweed, Ambrosia elatior); experiment: Test A preemergence; conditions: Ambrosia artemisiifolia, pre-emergence, 240 h, 0 to 100 scale where 0 is no effect and 100 is complete control, read-out: Ragweed plant response rating
Summary of the method: as §1

[6] = tested on: ryegrass, Italian (Italian ryegrass, Lolium multiflorum); experiment: Test A preemergence; conditions: Lolium multiflorum, pre-emergence, 240 h, 0 to 100 scale where 0 is no effect and 100 is complete control, read-out: Ryegrass, Italian plant response rating
Summary of the method: as §1

[7] = tested on: Galium (catchweed bedstraw, Galium aparine); experiment: Test A postemergence; conditions: Galium, post-emergence, 240 h
Summary of the method: as §1

Kochia (Kochia scoparia) [8] = experiment: Test A postemergence; conditions: Bassia scoparia, post-emergence, 240 h
Summary of the method: as §1

[9] = tested on: barnyardgrass (Echinochloa crus-galli); experiment: Test A postemergence; conditions: Echinochloa crus-galli, post-emergence, 240 h
Summary of the method: as §1

[10] = tested on: blackgrass (Alopecurus myosuroides); experiment: Test A postemergence; conditions: Alopecurus myosuroides, post-emergence, 240 h
Summary of the method: as §1

corn (Zea mays) = experiment: Test A postemergence; conditions: Zea mays, post-emergence, 240 h
Summary of the method: as §1

[11] = tested on: giant foxtail (Setaria faberii); experiment: Test A postemergence; conditions: Setaria faberi, post-emergence, 240 h
Summary of the method: as §1

[12] = tested on: pigweed (Amaranthus retroflexus); experiment: Test A postemergence; conditions: Amaranthus retroflexus, post-emergence, 240 h
Summary of the method: as §1

[13] = tested on: ragweed (common ragweed, Ambrosia elatior); experiment: Test A postemergence; conditions: Ambrosia artemisiifolia, post-emergence, 240 h
Summary of the method: as §1

[14] = tested on: ryegrass, Italian (Italian ryegrass, Lolium multiflorum); experiment: Test A postemergence; conditions: Lolium multiflorum, post-emergence, 240 h
Summary of the method: as §1

[15] = tested on: wheat (Triticum aestivum); experiment: Test A postemergence; conditions: Triticum aestivum, post-emergence, 240 h
Summary of the method: as §1

[16] = tested on: barnyardgrass (Echinochloa crus-galli); experiment: Test B flooded paddy test; conditions: Echinochloa crus-galli, 250 g ai/ha, Flood; 0 to 100 scale where 0 is no effect and 100 is complete control; read-out: Barnyardgrass plant response rating
Summary of the method: (§2)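 Percent control, visually estimated after 13–15 d in the greenhouse on a 0–100 basis, compares treated pots with untreated ones; compound was put into paddy water 3 cm above the soil when plants had two leaves.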

[17] = tested on: ducksalad (Heteranthera limosa); experiment: Test B flooded paddy test; conditions: Heteranthera limosa, 250 g ai/ha, Flood; 0 to 100 scale where 0 is no effect and 100 is complete control; read-out: Ducksalad plant response rating
Summary of the method: as §2

rice (Oryra sativa) = experiment: Test B flooded paddy test; conditions: Oryza sativa, 250 g ai/ha, Flood; 0 to 100 scale where 0 is no effect and 100 is complete control; read-out: Rice plant response rating
Summary of the method: as §2

[18] = tested on: sedge, umbrella (small-flower umbrella sedge, Cyperus difformis); experiment: Test B flooded paddy test; conditions: Cyperus difformis, 250 g ai/ha, Flood; 0 to 100 scale where 0 is no effect and 100 is complete control; read-out: Sedge, Umbrella plant response rating
Summary of the method: as §2

[19] = 125 g ai/ha, preemergence, approx. 10 d

## Cc1ccncc1NC(=O)[C@H]1C(=O)N(C)C[C@@H]1c1cccc(C(F)(F)F)c1 [Compound 1069]
Kochia (Kochia scoparia) [1]; 31 g ai/ha, Preemergence
  pest or weed control at 31 g/ha: 0%
Kochia (Kochia scoparia) [1]; [19]
  pest or weed control at 125 g/ha: 0%
[2]; 31 g ai/ha, 0 to 100 scale where 0 is no effect and 100 is complete control, read-out: Barnyardgrass plant response rating
  pest or weed control at 31 g/ha: 0%
[2]; 125 g ai/ha, visual injury rating after approximately 10 d, read-out: Barnyardgrass plant response rating (0 to 100 scale, 0 is no effect, 100 is complete control)
  pest or weed control at 125 g/ha: 0%
[3]; 31 g ai/ha, 0 to 100 scale where 0 is no effect and 100 is complete control, read-out: Foxtail, Giant plant response rating
  pest or weed control at 31 g/ha: 0%
[3]; 125 g ai/ha, visual injury rating after approximately 10 d, read-out: Foxtail, Giant plant response rating (0 to 100 scale, 0 is no effect, 100 is complete control)
  pest or weed control at 125 g/ha: 50%
[4]; 31 g ai/ha, Preemergence
  pest or weed control at 31 g/ha: 0%
[4]; [19]
  pest or weed control at 125 g/ha: 0%
[5]; 31 g ai/ha, Preemergence
  pest or weed control at 31 g/ha: 0%
[5]; [19]
  pest or weed control at 125 g/ha: 0%
[6]; 31 g ai/ha, Preemergence
  pest or weed control at 31 g/ha: 0%
[6]; [19]
  pest or weed control at 125 g/ha: 0%
[7]; 125 g ai/ha, postemergence, visual injury on 0 to 100 scale (0 no effect, 100 complete control), approx. 10 d, read-out: Galium plant response rating
  pest or weed control at 125 g/ha: 0%
[7]; Postemergence, 31 g ai/ha, visual injury after approx. 10 d, 0 to 100 scale, 0 no effect, 100 complete control, read-out: Plant response rating, Galium
  pest or weed control at 31 g/ha: 0%
Kochia (Kochia scoparia) [8]; 125 g ai/ha, postemergence, visual injury on 0 to 100 scale (0 no effect, 100 complete control), approx. 10 d, read-out: Kochia plant response rating
  pest or weed control at 125 g/ha: 0%
Kochia (Kochia scoparia) [8]; Postemergence, 31 g ai/ha, visual injury after approx. 10 d, 0 to 100 scale, 0 no effect, 100 complete control, read-out: Plant response rating, Kochia
  pest or weed control at 31 g/ha: 0%
[9]; 125 g ai/ha, postemergence, visual injury on 0 to 100 scale (0 no effect, 100 complete control), approx. 10 d, read-out: Barnyardgrass plant response rating
  pest or weed control at 125 g/ha: 0%
[9]; Postemergence, 31 g ai/ha, visual injury after approx. 10 d, 0 to 100 scale, 0 no effect, 100 complete control, read-out: Plant response rating, Barnyardgrass
  pest or weed control at 31 g/ha: 0%
[10]; 125 g ai/ha, postemergence, visual injury on 0 to 100 scale (0 no effect, 100 complete control), approx. 10 d, read-out: Blackgrass plant response rating
  pest or weed control at 125 g/ha: 0%
[10]; Postemergence, 31 g ai/ha, visual injury after approx. 10 d, 0 to 100 scale, 0 no effect, 100 complete control, read-out: Plant response rating, Blackgrass
  pest or weed control at 31 g/ha: 0%
Corn (Zea mays); 125 g ai/ha, postemergence, visual injury on 0 to 100 scale (0 no effect, 100 complete control), approx. 10 d, read-out: Corn plant response rating
  plant injury at 125 g/ha: 0%
Corn (Zea mays); Postemergence, 31 g ai/ha, visual injury after approx. 10 d, 0 to 100 scale, 0 no effect, 100 complete control
  Corn plant response rating (crop injury, 0 = no effect, 100 = complete kill) at 31 g/ha: 0%
[11]; 125 g ai/ha, postemergence, visual injury on 0 to 100 scale (0 no effect, 100 complete control), approx. 10 d, read-out: Foxtail, Giant plant response rating
  pest or weed control at 125 g/ha: 0%
[11]; Postemergence, 31 g ai/ha, visual injury after approx. 10 d, 0 to 100 scale, 0 no effect, 100 complete control, read-out: Plant response rating, Foxtail, Giant
  pest or weed control at 31 g/ha: 0%
[12]; 125 g ai/ha, postemergence, visual injury on 0 to 100 scale (0 no effect, 100 complete control), approx. 10 d, read-out: Pigweed plant response rating
  pest or weed control at 125 g/ha: 0%
[12]; Postemergence, 31 g ai/ha, visual injury after approx. 10 d, 0 to 100 scale, 0 no effect, 100 complete control, read-out: Plant response rating, Pigweed
  pest or weed control at 31 g/ha: 0%
[13]; 125 g ai/ha, postemergence, visual injury on 0 to 100 scale (0 no effect, 100 complete control), approx. 10 d, read-out: Ragweed plant response rating
  pest or weed control at 125 g/ha: 0%
[13]; Postemergence, 31 g ai/ha, visual injury after approx. 10 d, 0 to 100 scale, 0 no effect, 100 complete control, read-out: Plant response rating, Ragweed
  pest or weed control at 31 g/ha: 0%
[14]; 125 g ai/ha, postemergence, visual injury on 0 to 100 scale (0 no effect, 100 complete control), approx. 10 d, read-out: Ryegrass, Italian plant response rating
  pest or weed control at 125 g/ha: 0%
[14]; Postemergence, 31 g ai/ha, visual injury after approx. 10 d, 0 to 100 scale, 0 no effect, 100 complete control, read-out: Plant response rating, Ryegrass, Italian
  pest or weed control at 31 g/ha: 0%
[15]; 125 g ai/ha, postemergence, visual injury on 0 to 100 scale (0 no effect, 100 complete control), approx. 10 d, read-out: Wheat plant response rating
  plant injury at 125 g/ha: 0%
[15]; Postemergence, 31 g ai/ha, visual injury after approx. 10 d, 0 to 100 scale, 0 no effect, 100 complete control, read-out: Plant response rating, Wheat
  plant injury at 31 g/ha: 0%
[16]
  pest or weed control at 250 g/ha: 20%
[17]
  pest or weed control at 250 g/ha: 35%
Rice (Oryra sativa)
  pest or weed control at 250 g/ha: 0%
[18]
  pest or weed control at 250 g/ha: 0%
